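Protocol summary: plate cells (96-well), add compound at 5 concentrations, incubate 48 h, interpolate endpoints linearly. Abbreviation: GI50, concentration required for 50% inhibition of growth. TGI denotes the concentration required for complete inhibition of growth.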
Columns and labels:
Assay in all cases: inhibition of tumour cell growth, NCI panel, 48 h
NCI-H23 lung = tested on: NCI-H23 lung
NCI-H460 lung = tested on: NCI-H460 lung
NCI-H522 lung = tested on: NCI-H522 lung
NCI/ADR-RES ovarian = tested on: NCI/ADR-RES ovarian
OVCAR-3 ovarian = tested on: OVCAR-3 ovarian
OVCAR-4 ovarian = tested on: OVCAR-4 ovarian
OVCAR-5 ovarian = tested on: OVCAR-5 ovarian
OVCAR-8 ovarian = tested on: OVCAR-8 ovarian
PC-3 prostate = tested on: PC-3 prostate
RPMI-8226 leukemia = tested on: RPMI-8226 leukemia
RXF 393 renal = tested on: RXF 393 renal
SF-268 CNS = tested on: SF-268 CNS
SF-295 CNS = tested on: SF-295 CNS
SF-539 CNS = tested on: SF-539 CNS
SK-MEL-2 melanoma = tested on: SK-MEL-2 melanoma
SK-MEL-28 melanoma = tested on: SK-MEL-28 melanoma
SK-MEL-5 melanoma = tested on: SK-MEL-5 melanoma
SN12C renal = tested on: SN12C renal
SNB-19 CNS = tested on: SNB-19 CNS
SNB-75 CNS = tested on: SNB-75 CNS
SR leukemia = tested on: SR leukemia
SW-620 colon = tested on: SW-620 colon
T-47D breast = tested on: T-47D breast
TK-10 renal = tested on: TK-10 renal
U251 CNS = tested on: U251 CNS
UACC-257 melanoma = tested on: UACC-257 melanoma
UACC-62 melanoma = tested on: UACC-62 melanoma
UO-31 renal = tested on: UO-31 renal

Nc1ncnc2c1ccn2-c1cccc(NC(=O)c2ccc(N3CCOCC3)c(C(F)(F)F)c2)c1
TGI (NCI-H23 lung): 13.6 µM
GI50 (NCI-H460 lung): 2.92 µM
TGI (NCI-H460 lung): 9.33 µM
GI50 (NCI-H522 lung): 1.74 µM
TGI (NCI-H522 lung): 5.2 µM
GI50 (NCI/ADR-RES ovarian): 2.93 µM
TGI (NCI/ADR-RES ovarian): 23.4 µM
GI50 (OVCAR-3 ovarian): 3.04 µM
TGI (OVCAR-3 ovarian): 11.4 µM
GI50 (OVCAR-4 ovarian): 3.57 µM
TGI (OVCAR-4 ovarian): 12.5 µM
GI50 (OVCAR-5 ovarian): 3 µM
TGI (OVCAR-5 ovarian): 21.1 µM
GI50 (OVCAR-8 ovarian): 2.91 µM
TGI (OVCAR-8 ovarian): 9.62 µM
GI50 (PC-3 prostate): 2.51 µM
TGI (PC-3 prostate): 10.4 µM
GI50 (RPMI-8226 leukemia): 1.39 µM
TGI (RPMI-8226 leukemia): 4.04 µM
GI50 (RXF 393 renal): 2.05 µM
TGI (RXF 393 renal): 5.1 µM
GI50 (SF-268 CNS): 3.44 µM
TGI (SF-268 CNS): 13.1 µM
GI50 (SF-295 CNS): 2.44 µM
TGI (SF-295 CNS): 7.31 µM
GI50 (SF-539 CNS): 2.39 µM
TGI (SF-539 CNS): 15.4 µM
GI50 (SK-MEL-2 melanoma): 1.83 µM
TGI (SK-MEL-2 melanoma): 5.1 µM
GI50 (SK-MEL-28 melanoma): 4.76 µM
TGI (SK-MEL-28 melanoma): 23 µM
GI50 (SK-MEL-5 melanoma): 2.56 µM
TGI (SK-MEL-5 melanoma): 13.2 µM
GI50 (SN12C renal): 2.9 µM
TGI (SN12C renal): 9.64 µM
GI50 (SNB-19 CNS): 3.96 µM
TGI (SNB-19 CNS): 13 µM
GI50 (SNB-75 CNS): 1.31 µM
TGI (SNB-75 CNS): 9.02 µM
GI50 (SR leukemia): 3.38 µM
TGI (SR leukemia): 20.7 µM
GI50 (SW-620 colon): 4.23 µM
TGI (SW-620 colon): 17.8 µM
GI50 (T-47D breast): 2.66 µM
TGI (T-47D breast): 7.92 µM
GI50 (TK-10 renal): 1.92 µM
TGI (TK-10 renal): 6.04 µM
GI50 (U251 CNS): 2.41 µM
TGI (U251 CNS): 6.44 µM
GI50 (UACC-257 melanoma): 4.99 µM
TGI (UACC-257 melanoma): 22.1 µM
GI50 (UACC-62 melanoma): 1.99 µM
TGI (UACC-62 melanoma): 5.78 µM
GI50 (UO-31 renal): 2.8 µM
TGI (UO-31 renal): 6.73 µM
